Results on eleven molecules are retold here after patent US8268829B2, “Substituted pyrimidines useful as protein kinase inhibitors” (Vertex Pharmaceuticals Inc., priority 2002, dated 2012).

In turn, `CCC(=O)Nc1ccc(Sc2nc(Nc3cc(C)n[nH]3)cc(N3CC(C)NC(C)C3)n2)cc1` (centres unmarked) [Compound I-19] gave a melting point of 151 to 152 °C.
Regarding `CCC(=O)Nc1ccc(Sc2nc(Nc3cc(C)n[nH]3)cc(N3CCC(N)C3)n2)cc1` (centres unmarked) [Compound I-20], the melting point lay within 159 to 160 °C.
`Cc1cc(Nc2cc(NCCN3CCCC3)nc(Sc3ccc(NC(=O)C4CC4)cc3)n2)[nH]n1` [Compound I-29] gave a melting point of 220 to 222 °C.
Regarding `N#CCCN1CCN(c2cc(Nc3ccn[nH]3)nc(Sc3ccc(NC(=O)C4CC4)cc3)n2)CC1` [Compound I-37], the melting point fell in the range of 131 to 132 °C.
The molecule `CS(=O)(=O)N1CCN(c2cc(Nc3ccn[nH]3)nc(Sc3ccc(NC(=O)C4CC4)cc3)n2)CC1` [Compound I-42] returned a melting point of 168 to 169 °C.
To `CS(=O)(=O)CCN1CCN(c2cc(Nc3ccn[nH]3)nc(Sc3ccc(NC(=O)C4CC4)cc3)n2)CC1` [Compound I-45] belongs 154 to 155 °C; to `CC1CN(c2cc(Nc3ccn[nH]3)nc(Sc3ccc(NC(=O)C4CC4)cc3)n2)CCN1` (centres unmarked) [Compound I-46], 160 to 161 °C; to `O=C(Nc1ccc(Sc2nc(Nc3ccn[nH]3)cc(N3CCN(CC(=O)N4CCOCC4)CC3)n2)cc1)C1CC1` [Compound I-47], 158 to 159 °C.
To `CC(C)(C)N1CCN(c2cc(Nc3ccn[nH]3)nc(Sc3ccc(NC(=O)C4CC4)cc3)n2)CC1` [Compound I-53] belongs 167 to 169 °C; to `Cc1cc(Nc2cc(N3CCOCC3)nc(Sc3ccc(NC(=O)C4CC4)cc3)n2)[nH]n1` [Compound I-61], 238 to 239 °C.
To `Cc1cc(Nc2cc(N3CCNCC3)nc(Sc3ccc(NC(=O)C(C)(C)C)cc3)n2)[nH]n1` [Compound V-3] belongs 178 to 181 °C.
